Data as given in the supplement of paper PMC8671470.
± gives the standard deviation of the averaged measurements.

System: HL-60
Assay: cell viability (% survival relative to DMSO control); higher = less cytotoxic
Settings: 72 h
In short: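 For each screen, HL-60 cells in RPMI 1640 with 10% FBS carried either DMSO or 100 nM of one of three metabolic inhibitors while the full library was applied at five tenfold concentrations, 1–10,000 nM, in duplicate. Plates were 384-well and were kept 72 h at 37 °C, 5% CO2. Viability, measured by CellTiter-Glo, was normalised to wells with DMSO and with 10 μM proteasome inhibitor. Where area under the curve appears, it was fitted by four-parameter log-logistic models in drc and PharmacoGx.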

[1] = 0.001 µM, co-treatment: AZD3965 100 nM
[2] = 0.001 µM, co-treatment: DMSO vehicle
[3] = 0.001 µM, co-treatment: GSK2194069 100 nM
[4] = 0.001 µM, co-treatment: pictilisib 100 nM
[5] = 0.01 µM, co-treatment: AZD3965 100 nM
[6] = 0.01 µM, co-treatment: DMSO vehicle
[7] = 0.01 µM, co-treatment: GSK2194069 100 nM
[8] = 0.01 µM, co-treatment: pictilisib 100 nM
[9] = 0.1 µM, co-treatment: AZD3965 100 nM
[10] = 0.1 µM, co-treatment: DMSO vehicle
[11] = 0.1 µM, co-treatment: GSK2194069 100 nM
[12] = 0.1 µM, co-treatment: pictilisib 100 nM
[13] = 1 µM, co-treatment: AZD3965 100 nM
[14] = 1 µM, co-treatment: DMSO vehicle
[15] = 1 µM, co-treatment: GSK2194069 100 nM
[16] = 1 µM, co-treatment: pictilisib 100 nM
[17] = 10 µM, co-treatment: AZD3965 100 nM
[18] = 10 µM, co-treatment: DMSO vehicle
[19] = 10 µM, co-treatment: GSK2194069 100 nM
[20] = 10 µM, co-treatment: pictilisib 100 nM

Compound	cell viability [1] [%]	cell viability [2] [%]	cell viability [3] [%]	cell viability [4] [%]	cell viability [5] [%]	cell viability [6] [%]	cell viability [7] [%]	cell viability [8] [%]	cell viability [9] [%]	cell viability [10] [%]	cell viability [11] [%]	cell viability [12] [%]	cell viability [13] [%]	cell viability [14] [%]	cell viability [15] [%]	cell viability [16] [%]	cell viability [17] [%]	cell viability [18] [%]	cell viability [19] [%]	cell viability [20] [%]
Clc1ccc2c(c1Cl)CNCC2	97.69 ± 0.2	100 ± 2.3	93.2 ± 0.5	97.1 ± 7.5	94 ± 7.1	103.4 ± 0.11	102.4 ± 0.12	108 ± 11	103 ± 2.1	103 ± 3.9	107 ± 9.4	103 ± 8.7	105 ± 4.7	99.5 ± 2.9	106.8 ± 0.64	95.3 ± 7.3	102 ± 1.6	107 ± 6.2	99.73 ± 0.7	103.3 ± 0.41
CC(C)Cc1sc(N)nc1-c1ccc(P(=O)(O)O)o1	105 ± 4.8	101 ± 7.6	108 ± 9.1	97.8 ± 1.5	99.1 ± 8.8	100.4 ± 0.35	96.7 ± 7.1	89.8 ± 15	99.2 ± 21	105 ± 7.3	103 ± 8.6	109 ± 9.9	102 ± 3.8	104 ± 1.7	105 ± 3	98.8 ± 7.3	101 ± 1.6	99.2 ± 4.2	100 ± 3.6	105 ± 9.4
Cl.OC[C@H]1NC[C@@H](O)[C@@H](O)[C@@H]1O [1-Deoxymannojirimycin hydrochloride]	100 ± 3.4	99 ± 15	94.8 ± 6.3	95 ± 18	99.9 ± 6.2	107 ± 2.2	90.2 ± 12	99.8 ± 5	101 ± 1.6	100 ± 1.1	93.66 ± 0.51	102 ± 2.5	101.8 ± 0.31	106 ± 1.2	101 ± 9	111.2 ± 1	101 ± 5.8	95.9 ± 2.1	86.6 ± 3	104 ± 6.5
CN(C)c1nc(O)c2[nH]cnc2n1 [2-Dimethylamino-6-hydroxypurine]	98.9 ± 2.2	99.5 ± 1.3	98.8 ± 1.3	101 ± 8	97.93 ± 0.42	103 ± 8.9	110 ± 20	105 ± 3	100 ± 2.5	96.5 ± 1.1	92.4 ± 1.2	102.5 ± 0.56	97.6 ± 3	88.1 ± 12	104 ± 12	114 ± 16	101.2 ± 0.26	102 ± 4.7	108 ± 16	99 ± 9.8
O=C(O)c1cc2sccc2[nH]1 [4H-thieno[3,2-b]pyrrole-5-carboxylic acid]	96.3 ± 5.8	101.92 ± 0.033	99.1 ± 7.8	109 ± 14	101 ± 5.4	101 ± 2.9	100.5 ± 0.55	94.5 ± 6.3	94.6 ± 11	103 ± 7.1	101.3 ± 0.73	97.3 ± 4.2	76.4 ± 8.7	97.47 ± 0.64	90.2 ± 1.1	84.3 ± 7.3	104 ± 11	104 ± 3.8	100 ± 9.4	99.3 ± 9.8
[N-]=[N+]=CC(=O)CC[C@H](N)C(=O)O [6-Diazo-5-oxo-L-norleucine]	97.4 ± 11	98.1 ± 2.5	96.8 ± 8.2	86.7 ± 24	97.3 ± 4.9	100.1 ± 0.89	101 ± 3.5	102 ± 4.2	111 ± 13	103 ± 1.3	105 ± 9.1	102 ± 3.5	100.44 ± 0.019	101 ± 2.2	103 ± 6.7	105 ± 7.1	100 ± 1.3	101 ± 2.1	101.3 ± 0.3	87.8 ± 10
